Key:
Assay type in all cases: cell-based
SCD5 = molecular target: T1, SCD5 (Homo sapiens, UniProt Q86SK9); assay: Growth inhibition of humanized yeast strain expressing SCD5 as sole desaturase
T1 construct: host or cells: S. cerevisiae ole1Δ strain (W303 pdr1Δ pdr3Δ background), plasmid pRS316 with TDH3 promoter and CYC1 terminator
T1 sequence (Q86SK9 1-330): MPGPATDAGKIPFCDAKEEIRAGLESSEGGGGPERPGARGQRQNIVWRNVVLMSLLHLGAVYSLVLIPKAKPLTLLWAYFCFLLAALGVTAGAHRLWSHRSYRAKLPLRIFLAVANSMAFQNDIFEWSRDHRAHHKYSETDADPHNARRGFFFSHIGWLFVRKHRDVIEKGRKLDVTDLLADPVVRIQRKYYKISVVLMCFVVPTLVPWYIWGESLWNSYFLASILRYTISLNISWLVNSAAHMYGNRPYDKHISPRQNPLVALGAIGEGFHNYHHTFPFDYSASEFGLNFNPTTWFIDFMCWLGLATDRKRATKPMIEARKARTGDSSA
In short: (§1)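 Yeast ole1Δ strain (W303 pdr1Δ pdr3Δ background) carrying plasmid-borne Ole1, SCD1 or SCD5 as sole desaturase was grown in uracil-lacking media, pre-cultured in raffinose for 6 h, then seeded in galactose medium with compound in DMSO. Growth was read as OD600 after 30° C. incubation: 24 h for Ole1, 40 h for SCD1/SCD5.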

Ole1 = molecular target: T2, Ole1 (Saccharomyces cerevisiae, UniProt P21147); assay: Growth inhibition of yeast strain expressing Ole1 as sole desaturase; details: for IC50 / OLE1 % Max Inhibition: yeast strain expressing Ole1 as sole desaturase
T2 construct: expressed in transfected cells; host or cells: S. cerevisiae ole1Δ strain (W303 pdr1Δ pdr3Δ background), plasmid pRS316 with TDH3 promoter and CYC1 terminator
T2 sequence (P21147 1-510): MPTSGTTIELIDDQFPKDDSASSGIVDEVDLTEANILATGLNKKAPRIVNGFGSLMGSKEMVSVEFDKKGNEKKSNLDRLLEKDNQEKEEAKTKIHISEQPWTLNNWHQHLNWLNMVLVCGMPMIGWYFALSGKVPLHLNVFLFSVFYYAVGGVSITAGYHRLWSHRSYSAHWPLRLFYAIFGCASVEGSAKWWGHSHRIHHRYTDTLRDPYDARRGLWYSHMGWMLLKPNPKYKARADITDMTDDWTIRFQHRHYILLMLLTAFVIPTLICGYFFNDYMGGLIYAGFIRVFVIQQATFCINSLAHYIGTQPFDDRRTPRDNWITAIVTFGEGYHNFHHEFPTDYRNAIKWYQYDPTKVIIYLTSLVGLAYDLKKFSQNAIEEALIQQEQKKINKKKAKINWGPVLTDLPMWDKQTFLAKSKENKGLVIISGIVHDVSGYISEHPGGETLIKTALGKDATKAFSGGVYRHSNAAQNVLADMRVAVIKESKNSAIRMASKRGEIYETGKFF
Method: Strain oleΔ (yeast ole1 deletion mutant) was constructed by deleting OLE1 with NAT-MX6 in BY4741, amplifying the deletion cassette from the genomic DNA of the resulting strain with primers flanking the ORF by 1000 bp upstream and downstream, transforming the resulting deletion cassette into W303 pdr1Δ pdr3Δ, and plating transformants on YPD media containing G418 (200 μg/mL) and nourseothricin ([…]) with 0.01% TWEEN®-20 and 0.5 mM oleic and palmitoleic acids.
The coding sequence of yeast OLE1 was also cloned into this plasmid). These clones were then transformed into the ole1Δ strain and plated on CSM-Ura media (CSM lacking uracil) with 2% glucose (w/v) and independent colonies were isolated and amplified.
All compound profiling experiments were performed using the same basic protocol. Different genetic backgrounds (e.g., gene deletions) or conditions (e.g., addition of oleic and palmitoleic acid) were replaced as indicated below.
Yeast were cultured using standard techniques in complete synthetic media (CSM) and yeast nitrogen base supplemented with 2% (w/v) carbon source (glucose, raffinose, or galactose) to regulate the expression of the toxic disease protein. An initial starter culture was inoculated in 3 mL CSM-Glucose media and incubated overnight in a 30° C. shaker incubator (225 rpm). Saturated morning cultures were then diluted 1:20 in fresh CSM-Raffinose media and grown for 6 h to an OD600 (optical density) of ˜0.4-0.8 at 30° C. with shaking.
Compound administration was performed in two separate steps. First, 15 μL of CSM-Galactose (induces expression of toxic protein) was dispensed into clear 384 well assay plates using a MULTIDROP™ Combi reagent dispenser. […] The cultures described above were then diluted to a 2× concentration (0.03 and 0.08 for alpha-synuclein and ApoE, final ODsoo of 0.015 and 0.04) in CSM-Galactose. For wild-type and Ole1/SCD1/SCD5 plasmid-containing strains, the 2× cell density was 0.02. […] For 96-well assays (FIGS. 1A and 1B), compound dilutions in DMSO were generated in 96 well plates and 1 μL was manually pipetted into 96 well clear bottom assay plates.
For experiments using a plasmid-borne copy of Ole1, SCD1, or SCD5 (FIGS. 3B, 6, and 7), media lacking uracil (SX-Ura, where X is glucose, raffinose, or galactose), was used for all steps of the compound profiling protocol to ensure its maintenance throughout the assay.
After yeast delivery, assay plates were incubated under humidified conditions at 30° C. for 24 to 40 h. ApoE4 rescue experiments were stopped at 24 h, aSyn experiments at 40 h, Ole1 at 24 h, and SCD1/SCD5 at 40 h. The growth of yeast was monitored by reading the ODsoo of each well using a microplate reader (Perkin Elmer EnVision™).

SCD1 = molecular target: T3, SCD1 (Homo sapiens, UniProt O00767); assay: Growth inhibition of humanized yeast strain expressing SCD1 as sole desaturase
T3 construct: host or cells: S. cerevisiae ole1Δ strain (W303 pdr1Δ pdr3Δ background), plasmid pRS316 with TDH3 promoter and CYC1 terminator
T3 sequence (O00767 1-359): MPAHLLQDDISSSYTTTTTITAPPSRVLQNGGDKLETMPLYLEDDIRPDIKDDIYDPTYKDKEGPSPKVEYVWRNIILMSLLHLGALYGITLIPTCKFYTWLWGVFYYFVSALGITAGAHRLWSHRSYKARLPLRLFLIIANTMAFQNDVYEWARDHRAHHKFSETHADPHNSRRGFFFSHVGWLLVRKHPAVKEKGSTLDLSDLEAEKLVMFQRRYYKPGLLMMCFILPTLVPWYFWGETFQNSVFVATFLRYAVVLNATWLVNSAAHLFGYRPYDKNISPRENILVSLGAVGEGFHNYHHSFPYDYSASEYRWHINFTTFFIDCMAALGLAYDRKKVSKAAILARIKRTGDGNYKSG
In short: as §1

[1] = humanized yeast strain expressing SCD5

SMILES | IC50 (SCD5; [1]) [µM] | SCD5 % Max Inhibition (SCD5; [1]) [%] | IC50 (Ole1) [µM] | OLE1 % Max Inhibition (Ole1) [%] | IC50 (SCD5; humanized yeast strain, 40 h) [µM] | IC50 (SCD1; humanized yeast strain, 40 h) [µM] | other results
CC(C)n1ncc2ccc(-c3noc(C4CCN(C(=O)c5cccc(F)c5)CC4)n3)cc21 [Compound 344] | > 45 | 1.1 | > 45 | 7.14 |  |  | 
CC(C)n1ncc2ccc(-c3noc(C4CCN(C(=O)c5ccccc5)CC4)n3)cc21 [Compound 346] | > 45 | 1.1 | > 45 | 12.12 |  |  | 
CC(C)n1ncc2ccc(-c3noc(C4CCN(C(=O)c5ccccc5Cl)CC4)n3)cc21 [Compound 345] | > 45 | 2.2 | > 45 | 6.63 |  |  | 
N#Cc1cccc(N2CC(C(=O)N3CCC(c4nc(Cl)no4)CC3)CC2=O)c1 (centres unmarked) [Compound 350] |  | 56.3 | > 45 | 71.00 |  |  | 
CC(C)c1ccc(C(=O)N2CCC(c3nc(Cl)no3)CC2)cc1 [Compound 352] | > 45 | 44.5 | > 45 | 71.57 |  |  | 
CC(C)n1ncc2ccc(-c3noc(N4CCN(C(=O)OC(C)(C)C)CC4)n3)cc21 [Compound 349] | > 45 | 0.2 | > 45 | 84.00 |  |  | 
O=C(O)Cn1nnc(-c2cc(N3CCC(Oc4cc(F)ccc4Br)CC3)no2)n1 [MK-8245, reference compound] |  |  |  |  |  |  | half-maximal inhibitory concentration (IC50) (SCD5; SCD5 humanized strain, FIG. 6): low nanomolar; growth of yeast expressing OLE1 in presence of inhibitor (Ole1; FIG. 6): resistant
O=C(c1ccccc1)N1CCC(c2nc(Cl)no2)CC1 [Compound 351] |  | 57.3 | > 45 | 68.60 |  |  | 
CN1CC2CN(c3nc(-c4ccc5cnn(C6COC6)c5c4)no3)CCN2C1=O (centres unmarked) [Compound 1142] |  |  |  |  | > 45 | > 45 | 
O=C(CC1CC1)N1CCC(c2noc(-c3ccc4cnn([C@@H]5CCOC5)c4c3)n2)CC1 [Compound 1104] |  |  |  |  | 0.01 | > 45 | 
CC(C)(C)OC(=O)N1C[C@@H]2[C@H](C1)[C@H]2NC(=O)c1ccc2cnn(C3COC3)c2c1 [Compound 814] |  |  |  |  | > 45 | > 45 | 
O=C(N1CCC(c2noc(-c3cccc(N4CCOCC4)c3)n2)CC1)C1(F)CC1 [Compound 1080] |  |  |  |  | 0.501 | > 45 | 
CC(C)(C)OC(=O)N1CCC(c2noc(N3CCc4c(cnn4C4COC4)C3)n2)CC1 [Compound 1173] |  |  |  |  | 23.4 | ≥ 45 | 
CC(C)(C)OC(=O)N1CCC(c2nc(-c3ccc4cn(C5CCC5)nc4c3)no2)CC1 [Compound 731] |  |  |  |  |  |  | IC50 (SCD5; growth inhibition of humanized yeast strain expressing human SCD5): > 45 µM; IC50 (SCD1; growth inhibition of humanized yeast strain expressing human SCD1): > 45 µM
COC(=O)N1CCC(c2noc(-c3cccc(C4CCO4)c3)n2)CC1 (centres unmarked) [Compound 1191] |  |  |  |  | 1.36 | > 45 | 
CC(C)n1ncc2ccc(-c3noc(C4CCN(C(=O)COc5ccccc5)CC4)n3)cc21 [Compound 358] | > 45 | 4.53 |  |  |  |  | SCD1 % Max Inhibition (SCD1; humanized yeast strain expressing SCD1): 59.61%
O=C(C1CC2(CC2)C1)N1CCN(c2nnc(-c3ccc4cnn(C5COC5)c4c3)o2)CC1 [Compound 993] |  |  |  |  | 3.81 | > 45 | 

From US11873298B2, “Compounds and uses thereof” (JANSSEN PHARMACEUTICA NV, priority 2017, dated 2024)
